Data: US10519111B2, “UV absorbing compounds, compositions comprising same and uses thereof” (CORAL SUNSCREEN PTY LTD, priority 2013, dated 2019)
Each block holds one compound with its values, some of them ahead of it.

How the values were obtained:
[1] = UV absorption properties (λmax, molar extinction coefficient ε, efficiency E 1%, 1 cm); type: physicochemical
[2] = Critical wavelength (λcrit), approximate in-house measurement; type: physicochemical
From the text: As the precise test for critical wavelength was unable to be replicated exactly by the inventors due to the need for specialist equipment and a specific calibration of the spectrophotometer, these values are only approximate to a degree. […] This represents a highly useful result and so, compounds based around this benzoyl substitution pattern shown, are especially preferred.

[3] = Table 9, C3-trifluoroacetylated N-aryl enamines
[4] = Table 3, compounds from isocyanates or isothiocyanates
[5] = Table 5, acylation of N-t-Bu enamine
[6] = Table 5, values in order of the λmax values
[7] = Table 5, values in order of the λmax values, in M-1 cm-1
[8] = Table 13B, miscellaneous compounds
[9] = Table 13B, values in order of the λmax values
[10] = Table 13B, values in order of the λmax values, in M-1 cm-1
[11] = Table 10, bis and mono enamine compounds
[12] = Table 7, values in order of the λmax values

Structure (SMILES): CC1(C)CCN(C(C)(C)C)C=C1C(=O)Nc1ccc(NC(=O)C2=CN(C(C)(C)C)CCC2(C)C)cc1 [drawing 65]
- Ε (1%, 1 cm) ([1]; Table 3): 1456
- λmax [1, 4]: 322 nm
- ε ([1]; Table 3, in M-1 cm-1): 71962
- λcrit ([2]; Table 3): 346 nm

Structure (SMILES): Cc1ccc(S(=O)(=O)NC(=O)C2=CN(C(C)(C)C)CCC2(C)C)cc1 [drawing 64]
- Ε (1%, 1 cm) ([1]; Table 3): 950
- λmax [1, 4]: 304 nm
- ε ([1]; Table 3, in M-1 cm-1): 34588
- λcrit ([2]; Table 3): 319 nm

Structure (SMILES): CC1(C)CCN(C(C)(C)C)C=C1C(=O)CCCCCCCCC(=O)C1=CN(C(C)(C)C)CCC1(C)C [drawing 72]
- λmax [1, 5]: 307 nm
- Ε (1%, 1 cm) [1, 6]: 1095
- ε [1, 7]: 54797
- λcrit ([2]; Table 5): 322 nm

Structure (SMILES): CC(C)(C)CC(C)(C)N1C=C(C(=O)/C=C/c2ccc(/C=C/C(=O)C3=CN(C(C)(C)CC(C)(C)C)CCC3(C)C)cc2)C(C)(C)CC1
- λmax [1, 8]: 386 nm
- E (1%, 1 cm) [1, 9]: 486
- ε [1, 10]: 31937
- λcrit ([2]; Table 13B): 390 nm

Structure (SMILES): Cc1ccc(N2C=CC(C)(C)C=C2)cc1
- E (1%, 1 cm) ([1]; Table 10): 1601
- λmax [1, 11]: 283 nm
- ε ([1]; Table 10, in M-1 cm-1): 31871
- λcrit ([2]; Table 10): 317 nm

Structure (SMILES): CN(C(=O)C1=CN(C(C)(C)C)CCC1(C)C)c1ccccc1 [drawing 58]
- Ε (1%, 1 cm) ([1]; Table 3): 506
- λmax [1, 4]: 312 nm
- ε ([1]; Table 3, in M-1 cm-1): 15174
- λcrit ([2]; Table 3): 337 nm

Structure (SMILES): COC(=O)c1cc(/C=C/C(=O)C2=CN(C(C)(C)C)CCC2(C)C)ccc1/C=C/C(=O)C1=CN(C(C)(C)C)CCC1(C)C
- λmax [1, 8]: 383 nm
- E (1%, 1 cm) [1, 9]: 525
- ε [1, 10]: 30128
- λcrit ([2]; Table 13B): 389 nm

Structure (SMILES): CC(C)CN1C=C(C(=O)c2ccc(N(C)C)cc2)C(C)(C)CC1 [drawing 83]
- E (1%, 1 cm) ([1]; Table 6A): 544
- ε ([1]; Table 6A): 17000 M⁻¹ cm⁻¹
- λmax ([1]; Table 6A, N-isobutyl-C3-benzoyl compounds): 336 nm
- λcrit ([2]; Table 6A): 362 nm

Structure (SMILES): CC1(C)CCN(C(C)(C)C)C=C1C(=O)c1ccc(C(=O)O)cc1 [drawing 98]
- E (1%, 1 cm) ([1]; Table 6B): 549
- λmax ([1]; Table 6B, N-tert-butyl compounds): 317 nm
- ε ([1]; Table 6B, in M-1 cm-1): 17300
- λcrit ([2]; Table 6B): 353 nm

Structure (SMILES): CC1(C)CCN(C(C)(C)C)C=C1C(=O)c1ccncc1 [drawing 75]
- λmax [1, 5]: 316 nm
- Ε (1%, 1 cm) [1, 6]: 866
- ε [1, 7]: 23556
- λcrit ([2]; Table 5): 354 nm

Other lines, results leading:

- E (1%, 1 cm) ([1]; Table 9): 1004
- λmax [1, 3]: 354 nm
- ε ([1]; Table 9, in M-1 cm-1): 32744
- λcrit ([2]; Table 9): 385 nm
Structure (SMILES): CN(C)c1ccc(N2C=C(C(=O)C(F)(F)F)C(C)(C)CC2)cc1 [drawing 141]

- E (1%, 1 cm) ([1]; Table 8b): 1069
- λmax ([1]; Table 8b, N-phenyl compounds): 329 nm
- ε ([1]; Table 8b, in M-1 cm-1): 31955
- λcrit ([2]; Table 8b): 348 nm
Structure (SMILES): CCC(=O)C1=CN(c2ccc(C(C)(C)C)cc2)CCC1(C)C [drawing 136]

- E (1%, 1 cm) ([1]; Table 8a): 874
- ε ([1]; Table 8a): 21000 M⁻¹ cm⁻¹
- λmax ([1]; Table 8a, N-phenyl compounds): 346 nm
- λcrit ([2]; Table 8a): 373 nm
Structure (SMILES): C=CC(=O)C1=CN(c2ccccc2)CCC1(C)C [drawing 123]

- E (1%, 1 cm) ([1]; Table 11): 105
- λmax ([1]; Table 11, compounds from mixed anhydrides): 407 nm
- ε ([1]; Table 11, in M-1 cm-1): 6635
- λcrit ([2]; Table 11): 387 nm
Structure (SMILES): CC1(C)CCN(c2ccc(C(C)(C)C)cc2)C=C1C(OC(=O)C1c2ccccc2-c2ccccc21)=C1c2ccccc2-c2ccccc21 [drawing 159]

- λmax ([1]; Table 7, unsaturated compounds): 369 nm
- E (1%, 1 cm) [1, 12]: 463
- ε [1, 12]: 17000 M⁻¹ cm⁻¹
- λcrit ([2]; Table 7): 388 nm
Structure (SMILES): CC(C)CN1C=C(C(=O)/C=C/c2ccc(C(F)(F)F)cc2)C(C)(C)CC1 [drawing 113]

- E (1%, 1 cm) ([1]; Table 13A): 362
- ε ([1]; Table 13A): 8800 M⁻¹ cm⁻¹
- λmax ([1]; Table 13A, miscellaneous compounds): 366 nm
- λcrit ([2]; Table 13A): 386 nm
Structure (SMILES): CCC(=O)C1=CN(CC(C)C)C=CC1(C)C [drawing 170]

- E (1%, 1 cm) ([1]; Table 10): 560
- λmax [1, 11]: 253 nm
- ε ([1]; Table 10, in M-1 cm-1): 11371
- λcrit ([2]; Table 10): 350 nm
Structure (SMILES): Cc1cc(N2C=CC(C)(C)C=C2)n(C)n1 [drawing 152]

- E (1%, 1 cm) ([1]; Table 9): 1260
- λmax [1, 3]: 337 nm
- ε ([1]; Table 9, in M-1 cm-1): 42723
- λcrit ([2]; Table 9): 361 nm
Structure (SMILES): CC1(C)CCN(c2ccc(C(C)(C)C)cc2)C=C1C(=O)C(F)(F)F [drawing 139]

- E (1%, 1 cm) ([1]; Table 8a): 947
- ε ([1]; Table 8a): 23000 M⁻¹ cm⁻¹
- λmax ([1]; Table 8a, N-phenyl compounds): 321 nm
- λcrit ([2]; Table 8a): 349 nm
Structure (SMILES): CCC(=O)C1=CN(c2ccccc2)CCC1(C)C [drawing 122]

- E (1%, 1 cm) ([1]; Table 8b): 785
- λmax ([1]; Table 8b, N-phenyl compounds): 338 nm
- ε ([1]; Table 8b, in M-1 cm-1): 28040
- λcrit ([2]; Table 8b): 371 nm
Structure (SMILES): CCCCCCCC(=O)C1=CN(c2ccc(N(C)C)cc2)CCC1(C)C [drawing 134]

- E (1%, 1 cm) ([1]; Table 8b): 759
- λmax ([1]; Table 8b, N-phenyl compounds): 339 nm
- ε ([1]; Table 8b, in M-1 cm-1): 26633
- λcrit ([2]; Table 8b): 362 nm
Structure (SMILES): COc1ccc(N2C=C(C(=O)COc3ccccc3)C(C)(C)CC2)cc1 [drawing 132]

- E (1%, 1 cm) ([1]; Table 12): 683
- ε ([1]; Table 12): 20000 M⁻¹ cm⁻¹
- λmax ([1]; Table 12, 2-substituted compounds): 323 nm
- λcrit ([2]; Table 12): 344 nm
Structure (SMILES): CCC(=O)O/C(=C\C1=CC(C)(C)CCN1CC(C)C)CC [drawing 165]
